Source: patent publication US4663329A, “Thienopyridinone derivatives and anti-bacterial compositions containing them” (Sanofi, priority 1984, dated 1987)
Converted amounts (≈) assume the structure as drawn. Read-outs that look alike come from different tables or passages of the source.

How the values were obtained:
Type in all cases: cell-based
[1] = test system: Providencia stuartii 5158; assay: In vitro antibacterial activity, MIC, Providencia stuartii 5158; settings: Providencia stuartii 5158; 37° C., pH=7.4, inoculum 10^4; read-out: MIC
Method: (§1) Tests carried out in vitro in accordance with the experimental procedure described hereunder have provided evidence of the antibacterial activity in question.
(§2) For this purpose, the M.I.C. were determined i.e. the minimal inhibiting concentrations of the compound under study acting on the growth of the bacteria at 37° C.
(§3) The serial dilutions method was used utilizing a MUELLER HINTON gelose medium at pH=7.4 and a bacterial inoculum of 10^4 units forming colonies. This inoculum was applied to the gelose by means of a multiple sowing device.
(§4) A scale of concentrations ranging from 100 to 0.05 μg/ml of compound to be studied was used starting from mother solutions titrating 1000 μg/ml, all the subsequent dilutions being effected in distilled water.

Shigella sonnei R 018 = assay: In vitro antibacterial activity, MIC, Shigella sonnei R 018; settings: R018, 37° C., pH=7.4, inoculum 10^4
Method: as §1, §2, §3, §4

[2] = test system: Staphylococcus aureus 53154 IP; assay: In vitro antibacterial activity, MIC, Staphylococcus aureus 53154 IP; settings: Staphylococcus aureus 53154 IP; 37° C., pH=7.4, inoculum 10^4; read-out: MIC
Method: as §1, §2, §3, §4

[3] = test system: Streptococcus faecalis 5855 IP; assay: In vitro antibacterial activity, MIC, Streptococcus faecalis 5855 IP; settings: Enterococcus faecalis, 37° C., pH=7.4, inoculum 10^4, read-out: MIC
Method: as §1, §2, §3, §4

[4] = test system: Citrobacter freundii GN 346; assay: In vitro antibacterial activity, MIC, Citrobacter freundii GN 346; settings: GN346
Method: as §1, §2, §3, §4

[5] = test system: Proteus mirabilis ATCC 21100; assay: In vitro antibacterial activity, MIC, Proteus mirabilis ATCC 21100; settings: ATCC21100
Method: as §1, §2, §3, §4

[6] = test system: Salmonella typhimurium A 222 IP; assay: In vitro antibacterial activity, MIC, Salmonella typhimurium A 222 IP; settings: Salmonella enterica
Method: as §1, §2, §3, §4

[7] = test system: Enterobacter cloacae P 99; assay: In vitro antibacterial activity, MIC, Enterobacter cloacae P 99; settings: Enterobacter cloacae, P99
Method: as §1, §2, §3, §4

[8] = test system: Bacillus subtilis ATCC 6633; assay: In vitro antibacterial activity, MIC, Bacillus subtilis ATCC 6633; settings: ATCC6633
Method: as §1, §2, §3, §4

[9] = test system: Proteus vulgaris RL 99 bis; assay: In vitro antibacterial activity, MIC, Proteus vulgaris RL 99 bis; settings: RL99BIS
Method: as §1, §2, §3, §4

[10] = test system: Acinetobacter calcoaceticus C 1733; assay: In vitro antibacterial activity, MIC, Acinetobacter calcoaceticus C 1733; settings: C1733, 37° C., pH=7.4, inoculum 10^4, read-out: MIC
Method: as §1, §2, §3, §4

[11] = test system: Salmonella typhi ATCC 6539; assay: In vitro antibacterial activity, MIC, Salmonella typhi ATCC 6539; settings: Salmonella enterica
Method: as §1, §2, §3, §4

Proteus morganii 1510 = assay: In vitro antibacterial activity, MIC, Proteus morganii 1510; settings: Morganella morganii
Method: as §1, §2, §3, §4

[12] = test system: Pseudomonas aeruginosa 8203; assay: In vitro antibacterial activity, MIC, Pseudomonas aeruginosa 8203; settings: 37° C., pH=7.4, inoculum 10^4, read-out: MIC
Method: as §1, §2, §3, §4

[13] = test system: Enterobacter hafniae RO 46; assay: In vitro antibacterial activity, MIC, Enterobacter hafniae RO 46; settings: Hafnia alvei, RO46; Enterobacter hafniae RO 46; 37° C., pH=7.4, inoculum 10^4; read-out: MIC
Method: as §1, §2, §3, §4

[14] = test system: Klebsiella pneumoniae ATCC 10031; assay: In vitro antibacterial activity, MIC, Klebsiella pneumoniae ATCC 10031; settings: ATCC10031; Klebsiella pneumoniae ATCC 10031; 37° C., pH=7.4, inoculum 10^4; read-out: MIC
Method: as §1, §2, §3, §4

[15] = test system: Serratia liquefaciens 376; assay: In vitro antibacterial activity, MIC, Serratia liquefaciens 376; settings: 37° C., pH=7.4, inoculum 10^4, read-out: MIC
Method: as §1, §2, §3, §4

[16] = test system: Klebsiella pneumoniae R 30; assay: In vitro antibacterial activity, MIC, Klebsiella pneumoniae R 30; settings: R30; Klebsiella pneumoniae R 30; 37° C., pH=7.4, inoculum 10^4; read-out: MIC
Method: as §1, §2, §3, §4

[17] = test system: Escherichia coli 54127 IP; assay: In vitro antibacterial activity, MIC, Escherichia coli 54127 IP; settings: Escherichia coli 54127 IP; 37° C., pH=7.4, inoculum 10^4; read-out: MIC
Method: as §1, §2, §3, §4

[18] = test system: Escherichia coli SOL RL 90; assay: In vitro antibacterial activity, MIC, Escherichia coli SOL RL 90; settings: SOLRL90
Method: as §1, §2, §3, §4

[19] = test system: Bordetella bronchiseptica ATCC 4617; assay: In vitro antibacterial activity, MIC, Bordetella bronchiseptica ATCC 4617; settings: ATCC4617, 37° C., pH=7.4, inoculum 10^4, read-out: MIC
Method: as §1, §2, §3, §4

[20] = Citrobacter freundii GN 346, 37° C., pH=7.4, inoculum 10^4, read-out: MIC
[21] = Proteus mirabilis ATCC 21100, 37° C., pH=7.4, inoculum 10^4, read-out: MIC
[22] = Salmonella typhimurium A 222 IP, 37° C., pH=7.4, inoculum 10^4, read-out: MIC
[23] = Bacillus subtilis ATCC 6633, 37° C., pH=7.4, inoculum 10^4, read-out: MIC
[24] = Proteus vulgaris RL 99 bis, 37° C., pH=7.4, inoculum 10^4, read-out: MIC
[25] = Proteus morganii 1510, 37° C., pH=7.4, inoculum 10^4, read-out: MIC
[26] = Escherichia coli SOL RL 90, 37° C., pH=7.4, inoculum 10^4, read-out: MIC

SMILES	MIC [1]	MIC (Shigella sonnei R 018)	MIC [2]	MIC [3]	MIC [4, 20]	MIC [5, 21]	MIC [6, 22]	MIC [7]	MIC [9, 24]	MIC [10]	MIC [11]	MIC (Proteus morganii 1510; [25])	MIC [12]	MIC [13]	MIC [14]	MIC [15]	MIC [16]	MIC [17]	MIC [18, 26]	MIC [19]	other results
CCn1cc(C(=O)O)c(=O)c2cc(C=NOCCCN(C)C)sc21 [Compound E, 4,7-Dihydro-7-ethyl-2-(3-N,N-dimethylamino-propoxy)-iminomethyl-4-oxo-thieno[2,3-b]pyridine-5-carboxylic acid]	25 µg/mL (≈ 71.1 µM)	25 µg/mL (≈ 71.1 µM)	6.25 µg/mL (≈ 17.8 µM)	100 µg/mL (≈ 285 µM)	12.5 µg/mL (≈ 35.6 µM)	3.12 µg/mL (≈ 8.88 µM)	25 µg/mL (≈ 71.1 µM)	12.5 µg/mL (≈ 35.6 µM)	12.5 µg/mL (≈ 35.6 µM)	> 100 µg/mL	25 µg/mL (≈ 71.1 µM)	25 µg/mL (≈ 71.1 µM)	> 100 µg/mL	6.25 µg/mL (≈ 17.8 µM)	3.12 µg/mL (≈ 8.88 µM)	50 µg/mL (≈ 142 µM)	25 µg/mL (≈ 71.1 µM)	6.25 µg/mL (≈ 17.8 µM)	25 µg/mL (≈ 71.1 µM)	> 100 µg/mL	MIC [8, 23]: 6.25 µg/mL (≈ 17.8 µM)
CCn1cc(C(=O)O)c(=O)c2cc(C=Nc3ccccc3O)sc21 [Compound F, 4,7-Dihydro-7-ethyl-2-N-(2-hydroxy-phenyl)-iminomethyl-4-oxo-thieno[2,3-b]pyridine-5-carboxylic acid]	12.5 µg/mL (≈ 36.5 µM)	6.25 µg/mL (≈ 18.3 µM)	100 µg/mL (≈ 292 µM)	> 100 µg/mL				6.25 µg/mL (≈ 18.3 µM)		100 µg/mL (≈ 292 µM)	3.12 µg/mL (≈ 9.11 µM)		> 100 µg/mL	1.56 µg/mL (≈ 4.56 µM)	12.5 µg/mL (≈ 36.5 µM)	> 100 µg/mL	12.5 µg/mL (≈ 36.5 µM)	1.56 µg/mL (≈ 4.56 µM)		> 100 µg/mL	MIC ([4]; Citrobacter freundii): 6.25 µg/mL (≈ 18.3 µM); MIC ([5]; Proteus mirabilis): 3.12 µg/mL (≈ 9.11 µM); MIC ([6]; TYPHIMURIUM): 3.12 µg/mL (≈ 9.11 µM); MIC ([8]; Bacillus subtilis): 6.25 µg/mL (≈ 18.3 µM); MIC ([9]; Proteus vulgaris): 3.12 µg/mL (≈ 9.11 µM); MIC (Proteus morganii 1510; 1510): 6.25 µg/mL (≈ 18.3 µM); MIC ([18]; Escherichia coli): 3.12 µg/mL (≈ 9.11 µM)
CCn1cc(C(=O)O)c(=O)c2cc(C=Nc3ccc(OC)cc3)sc21 [Compound G, 4,7-Dihydro-7-ethyl-2-N-(4-methoxy-phenyl)-iminomethyl-4-oxo-thieno[2,3-b]pyridine-5-carboxylic acid]	12.5 µg/mL (≈ 35.1 µM)	6.25 µg/mL (≈ 17.5 µM)	> 100 µg/mL	> 100 µg/mL			3.12 µg/mL (≈ 8.75 µM)	6.25 µg/mL (≈ 17.5 µM)	1.56 µg/mL (≈ 4.38 µM)	> 100 µg/mL	6.25 µg/mL (≈ 17.5 µM)	0.78 µg/mL (≈ 2.19 µM)	> 100 µg/mL	1.56 µg/mL (≈ 4.38 µM)	12.5 µg/mL (≈ 35.1 µM)	100 µg/mL (≈ 281 µM)	12.5 µg/mL (≈ 35.1 µM)	1.56 µg/mL (≈ 4.38 µM)	3.12 µg/mL (≈ 8.75 µM)	> 100 µg/mL	MIC ([4]; Citrobacter freundii): 6.25 µg/mL (≈ 17.5 µM); MIC ([5]; Proteus mirabilis): 6.25 µg/mL (≈ 17.5 µM); MIC ([8]; Bacillus subtilis): 6.25 µg/mL (≈ 17.5 µM)
CCn1cc(C(=O)O)c(=O)c2cc(C=NOC(C)(C)C)sc21 [Compound I, 4,7-Dihydro-7-ethyl-4-oxo-2-tert-butoxyiminomethyl-thieno[2,3-b]pyridine-5-carboxylic acid]	> 50 µg/mL	> 50 µg/mL	> 50 µg/mL	> 100 µg/mL	> 25 µg/mL	> 25 µg/mL	> 50 µg/mL	> 25 µg/mL	> 50 µg/mL	> 25 µg/mL	> 25 µg/mL	> 25 µg/mL	> 25 µg/mL	> 25 µg/mL	3.12 µg/mL (≈ 9.68 µM)	> 25 µg/mL	> 25 µg/mL	> 25 µg/mL	> 50 µg/mL	> 25 µg/mL	MIC [8, 23]: 1.56 µg/mL (≈ 4.84 µM)
